Test results reported in patent US9207232B2, “Ceramide derivative and Golgi apparatus-labeling fluorescent probe using same” (National University Corporation Chiba University, priority 2011, dated 2015).
Where “and” joins values, the source holds several entries; their conditions need not be identical. Equal values may be shown once.

Columns and labels:
CHO cells [1] = assay: Evaluation of incorporation into cell (fluorescence of organic layer extract); type: cell-based, hamster; details: 10 μM, 1, 2, 6, 24 or 48 hours at 37° C.
Description: Firstly, the CHO cells were seeded into each well of a 24-well plate at 2×10^4 cells/well, and cultured in a Ham's F12(+) medium at 37° C. for one day. After that, medium exchange to a medium in which 0.1% BSA and 10 mM HEPES are added into a Ham's F12(−) medium which is a serum-free medium was performed, and the culture was further performed at 37° C. for 18 hours, then into which the compound 9 (10 μM) was added. After the addition, the resultant mixture was cultured at 37° C. for 1, 2, 6, 24, or 48 hours, and subjected to an assay. Further, as a negative control, the same experiment was performed with the NBD-C6-ceramide. […] Therefore, in this experiment, firstly, the cells were cultured for 18 hours in a serum-free medium, and the incorporation and metabolism of a serum-derived compound were decreased, then the test compound was added, and thus an experimental system was constructed such that the pure incorporation and metabolism of the test compound itself can be measured.
As the assay, firstly, the incorporation of the ceramide derivative (compound 9) into a cell was evaluated. […]
Subsequently, the obtained organic layer sample was added into a 96-well plate, and the fluorescence emission of the ceramide derivative was detected by using an image analyzer (LAS1000, manufactured by FUJIFILM Corporation). […]

[2] = system: Golgi apparatus in CHO cells; assay: Evaluation of localization to the Golgi apparatus (co-staining with BODIPY-TR-Ceramide, confocal laser scanning microscope); type: cell-based, hamster; details: 1 μM, 1.5 hours, then BODIPY-TR-Ceramide 5 μM 30 minutes
Description: It was evaluated whether or not the localization of the compound 9 into a cell is really due to the localization to the Golgi apparatus. Specifically, BODIPY-TR-Ceramide (Cat D-7540 Red manufactured by Molecular Probes), which is another Golgi marker known to be difficult to be metabolized, was added together with the compound 9 into a cell, and the observation was performed by using a confocal laser scanning microscope.
Firstly, the CHO cells were seeded into each well of a 24-well plate at 0.5×10^4 cells/well, and cultured in a Ham's F12(+) medium at 37° C. for two days. […] After completion of the culture, the cells were washed twice in the same manner as described above, and then the fluorescence emission from the cells was observed. […] In addition, the time course of the cell culture and compound addition is the one recommended by data sheets or previous reports as the time course in which BODIPY-TR-Ceramide can be detected more sensitively. The observation was performed by using a confocal laser scanning microscope, and the measurement of the fluorescence emission from the BODIPY-TR-Ceramide was performed at the maximum excitation wavelength of 598 nm, and the maximum fluorescence wavelength of 617 nm, to measure the “red”. […]

[3] = system: Golgi apparatus in CHO cells; assay: Changes in localization to the Golgi apparatus over time (fluorescence observation); type: cell-based, hamster; details: 1 μM, 1, 2, 6, 24 or 48 hours at 37° C.
Description: Subsequently, it was evaluated whether or not the localization of the compound 9 in the Golgi apparatus can be maintained over a long period of time. Specifically, by the method similar to that described above, the compound 9 or the NBD-C6-ceramide (negative control) (each of both is in 1 μM) was added, then the resultant mixture was cultured at 37° C. for 1, 2, 6, 24, or 48 hours, and the fluorescence (green) derived from the compound was observed.
The upper part of FIG. 4 is a set of pictures showing the results of the observation for the NBD-C6-ceramide (negative control), the pictures were taken by using a photomultiplier tube PMT:430. The middle part of FIG. 4 is a set of pictures showing the results of the observation for the compound 9, the pictures were taken by using a photomultiplier tube PMT:430. The lower part of FIG. 4 is a set of pictures showing the results of the observation for the compound. 9, the pictures were taken by using a photomultiplier tube PMT:500. At this point, the expression of “430” or “500” means detection sensitivity (size of the energy required to detect the emission derived from a compound), and the smaller the value, the higher the sensitivity. […]

CHO cells [4] = assay: Evaluation of cytotoxicity (changes in cell number); type: cell-based, hamster; details: 10 μM; for cell number after addition (24 hours) relative to before addition: before addition = 100%, no additives 170 ± 51%; for cell number after addition (24 hours): serum-free medium, before addition 12,600 cells/well
Description: Subsequently, as to the compound 9 synthesized in the above, the cytotoxicity was evaluated as the effect on the change in cell number.
Firstly, the CHO cells were seeded into each well of a 24-well plate at 1×10^4 cells/well, and cultured in a Ham's F12(+) medium at 37° C. for one day. The cell number one day after the culture was 1.26×10^4 cells/well. After that, medium exchange to a medium in which 0.1% BSA and 10 mM HEPES are added into a Ham's F12(−) medium which is a serum-free medium was performed, and in the presence of the compound 9 (10 μM), the culture was further performed for one day. Further, as a negative control, the same experiment was performed with the NBD-C6-ceramide described in Non Patent Literature 1. In addition, the same experiment was also performed for the case of no additives.

CHO cells [5] = assay: Evaluation of intracellular metabolism by TLC; type: in vitro ADME, hamster; details: 10 μM
Description: Firstly, the CHO cells were seeded into each well of a 24-well plate at 2×10^4 cells/well, and cultured in a Ham's F12(+) medium at 37° C. for one day. After that, medium exchange to a medium in which 0.1% BSA and 10 mM HEPES are added into a Ham's F12(−) medium which is a serum-free medium was performed, and the culture was further performed at 37° C. for 18 hours, then into which the compound 9 (10 μM) was added. After the addition, the resultant mixture was cultured at 37° C. for 1, 2, 6, 24, or 48 hours, and subjected to an assay. Further, as a negative control, the same experiment was performed with the NBD-C6-ceramide. Herein, ceramide, sphingosine, and the like are contained in the serum, and the incorporation and metabolism of these substances are constantly in progress. Therefore, in this experiment, firstly, the cells were cultured for 18 hours in a serum-free medium, and the incorporation and metabolism of a serum-derived compound were decreased, then the test compound was added, and thus an experimental system was constructed such that the pure incorporation and metabolism of the test compound itself can be measured.
As the assay, firstly, the incorporation of the ceramide derivative (compound 9) into a cell was evaluated. Specifically, cells that had been cultured for a predetermined time in the presence of the compound were washed twice with HBSS (Hank's Balanced Salt Solution: pH 7.4) containing 0.1% BSA and 10 mM HEPES, and then using a cell scraper and 250 μL of HBSS, the cells were detached from the wells. Into the cell extract thus obtained, 500 μL of chloroform, 500 μL of methanol, and 250 μL of water were added, and the cell extract was prepared in two-layer form of an organic layer and an aqueous layer. Further, since the ceramide derivative and other major sphingolipids are compounds that migrate to the organic layer, the cell extract in two-layer form was centrifuged for 10 minutes under the conditions of 3000 rpm at 4° C., and thus only the organic layer was isolated.
On the other hand, as another assay, the metabolism of the ceramide derivative (compound 9) was evaluated. Specifically, 20 μL of the organic layer sample thus obtained above was spotted on a TLC plate, and developed with a development solvent (1-butanol:acetic acid:water=3:1:1), then the intracellular metabolism of the sample was evaluated by using an image analyzer (LAS1000).
Further, by using a free software (Image J), the abundance of each metabolite was converted into a numerical value. The results are shown in E) of FIG. 2 (NBD-C6-ceramide (negative control)), and F) of FIG. 2 (compound 9). In the meantime, the numerical value of each amount of C16-glucosylceramide-NBD-like molecules and C16-sphingomyelin-NBD-like molecules was determined from the mobility in the TLC.

CHO cells [6] = assay: Evaluation of cytotoxicity (alteration of cell shape); type: cell-based, hamster; details: 10 μM, serum-free medium, cultured one day
Description: As to the compound 9 synthesized in the above, the cytotoxicity was evaluated as the effect on the change in cell morphology.
As the cultured cells, cells obtained by the culture of CHO cells, which is a cell strain derived from the ovary of hamster, in a Ham's F12 medium were used.
Firstly, the CHO cells were seeded into each well of a 24-well plate at 2×10^4 cells/well, and cultured in a Ham's F12(+) medium at 37° C. for one day. After that, in order to eliminate the influence of ceramide, sphingosine, and the like, medium exchange to a medium in which 0.1% BSA and 10 mM HEPES are added into a Ham's F12(−) medium which is a serum-free medium was performed, and in the presence of the compound 9 (10 μM), the culture was further performed for one day. Further, as a negative control, the same experiment was performed with the a NBD-C6-ceramide described in Non Patent Literature 1.

cell = assay: Staining of the Golgi apparatus with conventional probe (investigation by the present inventors); type: cell-based; details: cytotoxic effect
Description: A NBD-C6-ceramide has a cytotoxic effect, therefore, kills a cell itself within 24 hours from the incorporation into the cell, and thus the cell observation cannot be continued anymore. Further, an endogenous ceramide is metabolized into a glucosylceramide by being added with an oligosaccharide in the Golgi apparatus, or metabolized into sphingomyelin by receiving the transfer of phosphocholine from phosphatidylcholine, as a result, the metabolite is sent to cell membrane and becomes a component of the cell membrane. The NBD-C6-ceramide is, in the same manner as in the endogenous ceramide, metabolized to glucosylceramide or sphingomyelin in the Golgi apparatus, and the metabolite is transported to cell membrane from the Golgi in a few hours, therefore, the continuous staining is also difficult in this respect.

[7] = system: Golgi apparatus in CHO cells; details: 30 minutes after addition, or two hours later when metabolized; J Cell Biol. 1985; cited from earlier work

CCCCCCCCCCCCCCCC(=O)N[C@@H](COC(C)=O)[C@H](O)/C=C/CCCCCCCCCNc1ccc([N+](=O)[O-])c2nonc12 [compound 9, (2S,3R)-(E)-3-hydroxy-14-((7-nitrobenzo[c][1,2,5]oxadiazole-4-yl)amino)-2-palmitamide tetradec-4-en-1-yl acetate]
amount incorporated into a cell with the lapse of time (CHO cells [1]): increased with the lapse of time
co-localization with Golgi marker BODIPY-TR-Ceramide [2]: co-localized with the BODIPY-TR-Ceramide
fluorescence (emission) intensity in cells with the lapse of time [3]: gradually increased with the lapse of time
cell number after addition (24 hours) relative to before addition (CHO cells [4]): 159%
cell number after addition (24 hours) relative to before addition (CHO cells [4]; listed as Acetyl-C16-ceramide-NBD): 159 ± 33%
cell number after addition (24 hours) (CHO cells [4]): 20,000 ± 4100 cells/well
fraction that became a metabolite in 6 hours (CHO cells [5]): around 10%
fraction remaining as it is without being metabolized in 48 hours (CHO cells [5]; 48 hours): ≥ 70%
alteration of cell shape (roundation) (CHO cells [6]): the roundation was not observed

CCCCCCCCCCCCC/C=C/[C@@H](O)[C@H](CO)NC(=O)CCCCCNc1ccc([N+](=O)[O-])c2nonc12 [NBD-C6-ceramide]
time from incorporation into the cell until the cell is killed (cell): ≤ 24 h
retention in the Golgi apparatus after addition into a cell [7]: remains in the Golgi apparatus
amount incorporated into a cell with the lapse of time (CHO cells [1]): decreased with the lapse of time
co-localization with Golgi marker BODIPY-TR-Ceramide [2]: co-localized with the BODIPY-TR-Ceramide
fluorescence (emission) intensity in cells with the lapse of time [3]: attenuated with the lapse of time
cell number after addition (24 hours) relative to before addition (CHO cells [4]): 77% and 77 ± 2%
cell number after addition (24 hours) (CHO cells [4]): 9,690 ± 260 cells/well
fraction that became a metabolite in 6 hours (CHO cells [5]): 30%
amount of compound after metabolism in 24 hours (CHO cells [5]; 24 hours): decreased by half
fraction metabolized in 48 hours (CHO cells [5]; 48 hours): ~90%
alteration of cell shape (roundation) (CHO cells [6]): the alteration of cell shapge (roundation) was observed
